Calls of active or inactive are those of the source. No cut-off for these calls is given here.
Experiments:
P388 = test: Cytotoxicity against mouse P388 cells; assay type: functional, cell-based
Amorphotheca resinae = test: Antifungal activity against Cladosporium resinae at 40 ug/disk; assay type: functional; settings: for zone of inhibition at 40 µg/disc: read-out: IZ
[1] = system: Trichophyton mentagrophytes; test: Antifungal activity against Trichophyton mentagrophytes at 40 ug/disk; assay type: functional; settings: for zone of inhibition at 40 µg/disc: read-out: IZ
Bacillus subtilis = test: Antibacterial activity against Bacillus subtilis at 40 ug/disk; assay type: functional; settings: for zone of inhibition at 40 µg/disc: read-out: IZ

C[C@@H]1CCC(=O)/C=C/C(=O)O[C@H](C)[C@@H](O)/C=C/C(=O)O1
IC50 (P388): 1900 nM | zone of inhibition at 40 µg/disc (Amorphotheca resinae): 5 mm | zone of inhibition at 40 µg/disc [1]: 3 mm | zone of inhibition at 40 µg/disc (Bacillus subtilis): 3 mm

CC(C)=CCOc1ccc(C[C@H]2NC(=O)[C@H](C)NC(=O)[C@@H](Cc3ccc(O)cc3)NC(=O)CNC(=O)[C@H](C)NC(=O)[C@H](Cc3ccccc3)OC2=O)cc1
Activity (P388): inactive | Activity (Amorphotheca resinae): inactive | Activity [1]: inactive | Activity (Bacillus subtilis): inactive

C[C@@H]1CCC(=O)/C=C/C(=O)O[C@H](C)C(=O)/C=C/C(=O)O1
IC50 (P388): 3900 nM | Activity (Amorphotheca resinae): inactive | zone of inhibition at 40 µg/disc [1]: 1 mm | zone of inhibition at 40 µg/disc (Bacillus subtilis): 1 mm

C[C@@H]1CC[C@@H](O)/C=C/C(=O)O[C@H](C)C(=O)/C=C/C(=O)O1
IC50 (P388): 550 nM | zone of inhibition at 40 µg/disc (Amorphotheca resinae): 1 mm | zone of inhibition at 40 µg/disc [1]: 2 mm | zone of inhibition at 40 µg/disc (Bacillus subtilis): 6 mm

C[C@@H]1CC[C@@H](O)/C=C/C(=O)O[C@H](C)[C@@H](O)/C=C/C(=O)O1 [CLONOSTACHYDIOL]
IC50 (P388): 25000 nM | Activity (Amorphotheca resinae): inactive | Activity [1]: inactive | Activity (Bacillus subtilis): inactive

Reference: ChEMBL document CHEMBL1157321, “Bioactivity profiling using HPLC/microtiter-plate analysis: application to a New Zealand marine alga-derived fungus, Gliocladium sp” (J Nat Prod, 2006)
